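Method: 48-hour compound exposure of cells in 96-well plates, five concentrations, linear interpolation of endpoints. The concentration for 50% growth inhibition is given as GI50. TGI: total growth inhibition.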
Assays:
Test in all cases: NCI tumour cell line growth inhibition, 48 h
KM12 colon = test system: KM12 colon
HOP-62 NSCLC = test system: HOP-62 NSCLC
ACHN renal = test system: ACHN renal
EKVX NSCLC = test system: EKVX NSCLC
SN12C renal = test system: SN12C renal
HCC-2998 colon = test system: HCC-2998 colon
SK-MEL-28 melanoma = test system: SK-MEL-28 melanoma
BT-549 breast = test system: BT-549 breast
SK-MEL-5 melanoma = test system: SK-MEL-5 melanoma
HOP-92 NSCLC = test system: HOP-92 NSCLC
CAKI-1 renal = test system: CAKI-1 renal
NCI-H522 lung = test system: NCI-H522 lung
HCT-116 colon = test system: HCT-116 colon
SF-295 CNS = test system: SF-295 CNS
COLO 205 colon = test system: COLO 205 colon
SF-539 CNS = test system: SF-539 CNS
HS 578T breast = test system: HS 578T breast
MDA-MB-231 breast = test system: MDA-MB-231 breast
HT29 colon = test system: HT29 colon
MCF7 breast = test system: MCF7 breast
SW-620 colon = test system: SW-620 colon
RPMI-8226 leukemia = test system: RPMI-8226 leukemia
PC-3 prostate = test system: PC-3 prostate
NCI/ADR-RES ovarian = test system: NCI/ADR-RES ovarian
NCI-H23 lung = test system: NCI-H23 lung
CCRF-CEM leukemia = test system: CCRF-CEM leukemia
SK-MEL-2 melanoma = test system: SK-MEL-2 melanoma
OVCAR-8 ovarian = test system: OVCAR-8 ovarian
U251 CNS = test system: U251 CNS
UO-31 renal = test system: UO-31 renal
A549 NSCLC = test system: A549 NSCLC
SF-268 CNS = test system: SF-268 CNS
MOLT-4 leukemia = test system: MOLT-4 leukemia
LOX IMVI melanoma = test system: LOX IMVI melanoma
786-0 renal = test system: 786-0 renal
OVCAR-4 ovarian = test system: OVCAR-4 ovarian
IGROV1 ovarian = test system: IGROV1 ovarian
HCT-15 colon = test system: HCT-15 colon
TK-10 renal = test system: TK-10 renal
RXF 393 renal = test system: RXF 393 renal
A498 renal = test system: A498 renal
SR leukemia = test system: SR leukemia
SK-OV-3 ovarian = test system: SK-OV-3 ovarian
DU-145 prostate = test system: DU-145 prostate
NCI-H460 lung = test system: NCI-H460 lung
NCI-H226 lung = test system: NCI-H226 lung
K-562 leukemia = test system: K-562 leukemia
SNB-75 CNS = test system: SNB-75 CNS
OVCAR-5 ovarian = test system: OVCAR-5 ovarian
T-47D breast = test system: T-47D breast
UACC-62 melanoma = test system: UACC-62 melanoma
HL-60(TB) leukemia = test system: HL-60(TB) leukemia
MALME-3M melanoma = test system: MALME-3M melanoma
UACC-257 melanoma = test system: UACC-257 melanoma
MDA-MB-435 = test system: MDA-MB-435
OVCAR-3 ovarian = test system: OVCAR-3 ovarian
SNB-19 CNS = test system: SNB-19 CNS

## CC(C)(C)OC(=O)N1CCc2c(sc3ncnc(N/N=C/c4cccc5ccccc45)c23)C1
KM12 colon
  GI50: 4.3 µM
  TGI: 76.9 µM
HOP-62 NSCLC
  GI50: 3.79 µM
  TGI: > 100 µM
ACHN renal
  GI50: 3.24 µM
  TGI: 78.5 µM
EKVX NSCLC
  GI50: 3.64 µM
  TGI: > 100 µM
SN12C renal
  GI50: 5.04 µM
  TGI: 32.9 µM
HCC-2998 colon
  GI50: 12.9 µM
  TGI: > 100 µM
SK-MEL-28 melanoma
  GI50: 7.78 µM
  TGI: > 100 µM
BT-549 breast
  GI50: 8.45 µM
  TGI: 72.9 µM
SK-MEL-5 melanoma
  GI50: 3.36 µM
  TGI: 11.1 µM
HOP-92 NSCLC
  GI50: 2.78 µM
  TGI: 92.3 µM
CAKI-1 renal
  GI50: 3.35 µM
  TGI: > 100 µM
NCI-H522 lung
  GI50: 2.26 µM
  TGI: 7.21 µM
HCT-116 colon
  GI50: 3.22 µM
  TGI: 30.4 µM
SF-295 CNS
  GI50: 3.72 µM
  TGI: 66.8 µM
COLO 205 colon
  GI50: 2.79 µM
  TGI: 40.8 µM
SF-539 CNS
  GI50: 2.72 µM
  TGI: 8.59 µM
HS 578T breast
  GI50: 2.4 µM
  TGI: > 100 µM
MDA-MB-231 breast
  GI50: 5.93 µM
  TGI: > 100 µM
HT29 colon
  GI50: 4.07 µM
  TGI: > 100 µM
MCF7 breast
  GI50: 3.14 µM
  TGI: > 100 µM
SW-620 colon
  GI50: 3.87 µM
  TGI: > 100 µM
RPMI-8226 leukemia
  GI50: 2.28 µM
  TGI: 8.49 µM
PC-3 prostate
  GI50: 4.59 µM
  TGI: > 100 µM
NCI/ADR-RES ovarian
  GI50: 3.74 µM
  TGI: 43.8 µM
NCI-H23 lung
  GI50: 5.25 µM
  TGI: > 100 µM
CCRF-CEM leukemia
  GI50: 3.6 µM
  TGI: > 100 µM
SK-MEL-2 melanoma
  GI50: 4.38 µM
  TGI: 25.9 µM
OVCAR-8 ovarian
  GI50: 4.23 µM
  TGI: > 100 µM
U251 CNS
  GI50: 4.25 µM
  TGI: > 100 µM
UO-31 renal
  GI50: 2.68 µM
  TGI: 14.9 µM
A549 NSCLC
  GI50: 3.64 µM
  TGI: > 100 µM
SF-268 CNS
  GI50: 4.59 µM
  TGI: > 100 µM
MOLT-4 leukemia
  GI50: 3.25 µM
  TGI: 16.9 µM
LOX IMVI melanoma
  GI50: 3.84 µM
  TGI: 25.5 µM
786-0 renal
  GI50: 4.83 µM
  TGI: > 100 µM
OVCAR-4 ovarian
  GI50: 3.79 µM
  TGI: 80.6 µM
IGROV1 ovarian
  GI50: 3.94 µM
  TGI: > 100 µM
HCT-15 colon
  GI50: 3.86 µM
  TGI: > 100 µM
TK-10 renal
  GI50: 5.89 µM
  TGI: > 100 µM
RXF 393 renal
  GI50: 2.54 µM
  TGI: 7.41 µM
A498 renal
  GI50: 2.3 µM
  TGI: 9.79 µM
SR leukemia
  GI50: 2.82 µM
  TGI: 16 µM
SK-OV-3 ovarian
  GI50: 4 µM
  TGI: > 100 µM
DU-145 prostate
  GI50: 5.51 µM
  TGI: > 100 µM
NCI-H460 lung
  GI50: 3.29 µM
  TGI: 12.7 µM
NCI-H226 lung
  GI50: 5.29 µM
  TGI: 34.7 µM
K-562 leukemia
  GI50: 2.88 µM
  TGI: 62.4 µM
SNB-75 CNS
  GI50: 1.67 µM
  TGI: 8.2 µM
OVCAR-5 ovarian
  GI50: 4.71 µM
  TGI: > 100 µM
T-47D breast
  GI50: 3.04 µM
  TGI: 31.9 µM
UACC-62 melanoma
  GI50: 2.65 µM
  TGI: 10.2 µM
HL-60(TB) leukemia
  GI50: 2.81 µM
  TGI: 13.4 µM
MALME-3M melanoma
  GI50: 3.97 µM
  TGI: 36.3 µM
UACC-257 melanoma
  GI50: 5.8 µM
  TGI: 69.6 µM
MDA-MB-435
  GI50: 2.47 µM
  TGI: 7.31 µM
OVCAR-3 ovarian
  GI50: 3.95 µM
  TGI: 77.7 µM
SNB-19 CNS
  GI50: 5.05 µM
  TGI: > 100 µM

— PubChem BioAssay (NCI)
